Consider 69 compounds from PubChem BioAssay AID743161 (Sanford-Burnham Center for Chemical Genomics, 2013).

Several values for one entry are separate records, joined by “and”; a condition that tells them apart may be missing. Equal values may be shown once. Activity calls are given as the source filed them.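 The calls were made as follows: active = compounds whose lipid-stain IC50 is at most a set limit, with nuclear-stain IC50 a set multiple higher; inactive = the rest.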 Where only a bound is given, the exact number is not on record here.

In this experiment the test system is H9c2 rat cardiomyoblasts, Nile Red TAG fluorescence, overnight. Briefly: TAG accumulation blockers, Nile Red lipid stain – cell-based, H9c2 rat cardiomyoblasts, Nile Red fluorescence, primary readout, dose response (AID 743161).
Take `CCC(C)(C)NC(=O)C(c1ccc(OC)cc1)N(Cc1cccs1)C(=O)CCC(=O)Nc1cc(C)on1` (centres undefined): the IC50 was 5.88 µM.
`Cc1cc(C)c2nc(-c3ccncc3)cc(C(=O)N3CCN(Cc4ccccc4Cl)CC3)c2c1`: the IC50 was 5.05 µM.
As for `COCCN1Cc2cccc(C(=O)Nc3cccc(C(=O)Nc4ccccc4OC)c3)c2C1=O`, the IC50 is 5.75 µM.
For `Cc1ccccc1NC(=O)CSc1nc2ccc(Nc3nc(N4CCOCC4)nc(N4CCOCC4)n3)cc2s1`, the IC50 is 6.86 µM.
Consider `O=C(Nc1cccc(-c2nc3ccccc3[nH]2)c1)c1cccc2c1C(=O)N(CC1CC1)C2`, for which the IC50 is 1.53 µM.
In the case of `COCCN1Cc2cccc(C(=O)Nc3cccnc3)c2C1=O` it was > 50 µM (inactive); in that of `COCCn1cnc2cccc(C(=O)Nc3cccc(-c4nc5ccccc5[nH]4)c3)c2c1=O`, > 50 µM (inactive).
For the compound `Cc1ccccc1OCCNc1cc(N2CC(C)NC(C)C2)ccc1[N+](=O)[O-]` (centres undefined), the IC50 was 11.3 µM.
With `COc1cc2c(cc1OC)C(C)N(C(=O)c1cc3c(C)cc(C)cc3[nH]1)CC2` (centres undefined), the IC50 was 18.2 µM (inactive).
Turning to `COCCN1Cc2cccc(C(=O)Nc3cccc(-c4nc5ccccc5[nH]4)c3)c2C1=O`, the IC50 was 1.19 µM and 1.25 µM and 1.68 µM.
Turning to `CCCCN1Cc2cccc(C(=O)Nc3cccc(-c4nc5ccccc5[nH]4)c3)c2C1=O`, the IC50 is 0.982 µM.
In the case of `COc1ccc(CCN2Cc3cccc(C(=O)Nc4cccc(-c5nc6ccccc6[nH]5)c4)c3C2=O)cc1OC`, the IC50 was 1.1 µM.
For `CCCC(=O)Nc1nc2ccc(NC(=O)c3c(F)c(F)c(OC)c(F)c3F)cc2s1`, the IC50 was 8.2 µM.
For the compound `CCn1c(SCC(=O)Nc2nc(-c3ccc(C)cc3)cs2)nnc1-c1ccccc1O`, the IC50 was 7.87 µM.
In the case of `COc1ccc(-c2csc(NC(=O)c3ccc(OCC(=O)N4CCOCC4)c(OC)c3)n2)cc1` it was 0.662 µM.
`O=C(Nc1cccc(-c2nc3ccccc3[nH]2)c1)c1ccccc1`: the IC50 is 32.8 µM (inactive).
Take `COc1cccc(-c2cc(C(=O)Nc3ccc(N(C)C(C)=O)cc3)c3cc(Br)ccc3n2)c1`: the IC50 was 10.4 µM.
`O=C(Nc1cccc(-c2nc3ccccc3[nH]2)c1)c1cccc2c1C(=O)N(CCOc1ccccc1)C2`: the IC50 is 1.01 µM.
On to `COCCCN1Cc2cccc(C(=O)Nc3cccc(-c4nc5ccccc5[nH]4)c3)c2C1=O`, for which the IC50 was 2.29 µM.
For the compound `CCCN1Cc2cccc(C(=O)Nc3ccc(C)cc3)c2C1=O`, the IC50 was > 50 µM (inactive).
`COc1ccccc1CCN1Cc2cccc(C(=O)Nc3cccc(-c4nc5ccccc5[nH]4)c3)c2C1=O`: the IC50 was 1.07 µM.
Turning to `COCCN1Cc2cccc(C(=O)Nc3nc4ccccc4n3C)c2C1=O`, the IC50 is > 50 µM (inactive).
Take `COCCN1Cc2cccc(C(=O)Nc3ccc(-c4nc5ccccc5[nH]4)cc3)c2C1=O`: the IC50 is 0.0525 µM.
For `CCOC(=O)c1cccc(NC(=O)c2cccc3c2C(=O)N(CCOC)C3)c1`, the IC50 was > 50 µM (inactive).
On to `CCN(CC)S(=O)(=O)c1ccc(N2CCOCC2)c(NC(=O)c2[nH]c(C)c(C(C)=O)c2C)c1`, for which the IC50 is 11.3 µM.
Take `CN(C)CCCn1c(SCC(=O)Nc2nc(-c3cccc(Br)c3)cs2)nc2ccccc2c1=O`: the IC50 is 22.8 µM (inactive).
For the compound `Cc1ccc(Nc2nc(OC(C(F)(F)F)C(F)(F)F)nc(N3CCOCC3)n2)cc1`, the half-inhibitory concentration (IC50) was 3.9 µM.
As to `COCCN1Cc2cccc(C(=O)Nc3cccc(Cl)c3Cl)c2C1=O`, the IC50 is > 50 µM (inactive).
In the case of `CCCN1Cc2cccc(C(=O)Nc3ccc(-c4nc5ccccc5[nH]4)cc3)c2C1=O` it was > 50 µM (inactive).
With `COCCN1Cc2cccc(C(=O)Nc3ccc(S(=O)(=O)N4CCCCC4)cc3)c2C1=O`, the IC50 is > 50 µM (inactive).
In the case of `Cc1cccc2c(C(=O)N3CCN(c4ccccc4)CC3)cc(-c3ccncc3)nc12`, the IC50 was 4.25 µM.
For `CCCN1Cc2cccc(C(=O)Nc3cccc(C(C)=O)c3)c2C1=O`, the IC50 is > 50 µM (inactive).
As for `COCCN1Cc2cccc(C(=O)Nc3ccc(S(=O)(=O)N4CCOCC4)cc3)c2C1=O`, the IC50 is > 50 µM (inactive).
With `COc1cc(NC(=O)c2cc([N+](=O)[O-])ccc2NC(=O)CN2CCN(c3ccccn3)CC2)cc(OC)c1`, the half-maximal inhibitory concentration (IC50) is 8.11 µM.
For the compound `O=C(Nc1cccc(-c2nc3ccccc3[nH]2)c1)c1cccc2c1C(=O)N(CCc1ccccc1)C2`, the IC50 was 8.04 µM.
Turning to `CCN(CC)S(=O)(=O)c1ccc(NC(=O)c2cccc3c2C(=O)N(CCOC)C3)cc1`, the IC50 is > 50 µM (inactive).
As to `CCOC(=O)c1cc(-c2ccccc2)sc1NC(=O)C(C)N1C(=O)NC(C)(c2ccc(Cl)cc2)C1=O` (centres undefined), the IC50 was 8.38 µM.
Take `CC(C)CC(=O)Nc1cccc(-c2nc3ccccc3[nH]2)c1`: the IC50 was > 50 µM (inactive).
For `O=C(Nc1cccc2ncccc12)c1ccc(Cl)cc1`, the IC50 is > 50 µM (inactive).
`COCCN1Cc2cccc(C(=O)Nc3cccc(C(C)=O)c3)c2C1=O`: the IC50 is 17.5 µM (inactive).
`COCCN1Cc2cccc(C(=O)Nc3cccc(Cl)c3)c2C1=O`: the IC50 is > 50 µM (inactive).
In the case of `CCC(C)(C)NC(=O)C(c1ccc(C)cc1)N(Cc1ccco1)C(=O)CCC(=O)Nc1nccs1` (centres undefined) it was 8.41 µM; in that of `CCOc1ccccc1NC(=O)c1cccc(NC(=O)c2ccco2)c1`, 12 µM.
Turning to `CCCC(=O)Nc1nc2ccc(NC(=O)c3ccccc3F)cc2s1`, the IC50 is 13.5 µM.
With `O=C(CCC(=O)N1CCOc2ccc(Cl)cc21)NCCCN1CCC(Cc2ccccc2)CC1`, the IC50 was 12.6 µM.
For `CCOCCN1Cc2cccc(C(=O)Nc3cccc(-c4nc5ccccc5[nH]4)c3)c2C1=O`, the IC50 was 1.18 µM.
Take `COCCN1Cc2cccc(C(=O)Nc3cccc(-c4nc5ccc(C)cc5[nH]4)c3)c2C1=O`: the IC50 is 1.31 µM.
With `COCCN1Cc2cccc(C(=O)Nc3cccc(-c4nc5ccc(F)cc5[nH]4)c3)c2C1=O`, the IC50 was 1.27 µM.
For the compound `COCCN1Cc2cccc(C(=O)Nc3cccc(-c4nc5ccc(Cl)cc5[nH]4)c3)c2C1=O`, the IC50 is 1.42 µM.
In the case of `CC(=O)Nc1cccc(-c2nc3ccccc3[nH]2)c1`, the IC50 is > 50 µM (inactive).
As for `COCCN1Cc2cccc(C(=O)Nc3nc4ccccc4[nH]3)c2C1=O`, the IC50 was > 50 µM (inactive).
For `CSCCCN1Cc2cccc(C(=O)Nc3cccc(-c4nc5ccccc5[nH]4)c3)c2C1=O`, the IC50 was 0.661 µM.
As to `CCOc1ccc(NC(=O)CN(C)C(=O)c2cc(-c3ccc(OC)cc3)nc3ccccc23)cc1OCC`, the IC50 is 15.3 µM (inactive).
In the case of `O=C(Nc1cccc(-c2nc3ccccc3[nH]2)c1)c1cccc2c1C(=O)N(CCN1CCOCC1)C2` it was 3.36 µM.
For `COCCN1Cc2cccc(C(=O)Nc3cccc(-c4nc5ccc(C(F)(F)F)cc5[nH]4)c3)c2C1=O`, the IC50 was 0.832 µM.
The result for `O=C(CSc1nc2ccc(Nc3nc(N4CCOCC4)nc(N4CCOCC4)n3)cc2s1)Nc1ccccc1Cl` reads 7.85 µM; that for `CCCCSc1nc2ccc(Nc3nc(N4CCOCC4)nc(N4CCOCC4)n3)cc2s1`, 7.11 µM.
The result for `Cc1ccccc1NC(=O)CSc1nc(Nc2ccccc2)nc(N2CCOCC2)n1` reads 15.3 µM (inactive).
Consider `Cc1ccc(-c2nc(NC(=O)c3cc(C(C)(C)C)nn3C)sc2C)cc1Cl`, for which the IC50 is 4.26 µM.
As for `Cc1ccc(-c2csc(NC(=O)CSc3nc4ccccc4c(=O)n3CCCN(C)C)n2)cc1`, the IC50 was 17.5 µM (inactive).
Consider `O=C(Nc1cccc(-c2nc3ccccc3[nH]2)c1)C1CCCC1`, for which the IC50 is 44.3 µM (inactive).
Take `O=[N+]([O-])c1ccc(Nc2nc(NC3CCCCC3)nc(N3CCCC3)n2)cc1`: the IC50 was 14 µM.
As to `O=C(CSc1nc2ccc(Nc3nc(N4CCOCC4)nc(N4CCOCC4)n3)cc2s1)NCc1ccco1`, the concentration for half-maximal inhibition (IC50) was 6.77 µM.
Consider `O=C(Nc1cccc(-c2nc3ccccc3[nH]2)c1)c1ccncc1`, for which the IC50 was > 50 µM (inactive).
In the case of `CCOc1ccc(CCNC(=O)CN2CCN(Cc3ccccc3C)C2=O)cc1OCC` it was 10.8 µM; in that of `COCCN1Cc2cccc(C(=O)Nc3ccc(C)cc3)c2C1=O`, 19.3 µM (inactive).
Regarding `O=C1COc2ccc(C(=O)CSc3nc4ccccc4c(=O)n3-c3ccc(Cl)c(Cl)c3)cc2N1`, the IC50 is 14.9 µM.
In the case of `COCCN1Cc2cccc(C(=O)Nc3cccc(C(=O)Nc4ccccc4)c3)c2C1=O` it was 2.9 µM; in that of `COCCN1Cc2cccc(C(=O)Nc3ccc(CN4CCOCC4)cc3)c2C1=O`, > 50 µM (inactive).

Usually IC50 stands for the midpoint of a concentration-inhibition curve.
